In publication PMC11668526, “The satiety hormone cholecystokinin gates reproduction in fish by controlling gonadotropin secretion” (eLife, 2024):
Entries after “also recorded” stand apart in the source; their conditions may differ.

How the values were obtained:
[1] = tested on: three types of GnRH receptors that exist in fish; set-up: method as in Zohar and Mylonas, 2001; details: ref Zohar and Mylonas, 2001; cited from earlier work
FSH cells = experiment: Ex vivo calcium imaging (RCaMP2), FSH cells; assay type: cell-based, zebrafish; details: 78.74 µM
Experimental: (§1) Overall, whereas GnRH elicited a response in 95% of LH cells, only 56% of FSH cells responded to the treatment in the same fish (Figure 3E).
(§2) To functionally test the effect of CCK on gonadotroph activity, we applied the peptide (300 μl of 30 μg/ml CCK, 78.74 µM) to our ex vivo preparation and monitored the calcium response of the cells. […] The calcium response in FSH cells was highly synchronized (mean max cross-correlation coefficient, 0.7 ± 0.04; Figure 4B; Figure 4—figure supplement 1B). By contrast, the response of LH cells to CCK application was characterized by low mean of max cross-correlation coefficient values (0.43 ± 0.05; Figure 4B; Figure 4—figure supplement 1B).
Adult fish were euthanized using ice-cold water and decapitated. The head was transferred to ice-cold ACSF (124 mM NaCl, 3 mM KCl, 2 mM CaCl2, 2 mM MgSO4, 1.25 mM NaH2PO4, 26 mM NaHCO3, and 10 mM glucose (pH 7.2)) perfused with 5% CO2 and 95% O2. The heads were further dissected under a stereomicroscope. The ventral side of the head, including the jaw, gills, and mucus, was removed using fine forceps and microscissors, the optic nerves were cut and the eyes were removed. Next, the bone at the base of the skull that covers the pituitary (sella turcica) was removed using fine forceps. The head was placed in a dedicated chamber (Figure 3B) and stabilized with a slice anchor. […]
To measure hormone secretion in response to salmon GnRH analogue (D-Ala6,Pro9-Net)-mammalian GnRH (Bachem Inc, Torrance, CA) or zebrafish CCK [D-Y-[SO3H]-L-G-W-M-D-F, synthesized by GL Biochem] stimulation, the medium was collected through the chamber outlet during the entire imaging session (10 ml per session in total). […] Hormones were measured in the fractions before and after stimulation using ELISA developed for common carp, which was established in the Levavi-Sivan lab using recombinant carp gonadotropins produced in yeast, and had been previously shown to be suitable for zebrafish ([Whitlock et al., 2019]). […]

LH cells = experiment: Ex vivo calcium imaging (RCaMP2), LH cells; assay type: cell-based, zebrafish
Experimental: as §1, §2
Adult fish were euthanized using ice-cold water and decapitated. The head was transferred to ice-cold ACSF (124 mM NaCl, 3 mM KCl, 2 mM CaCl2, 2 mM MgSO4, 1.25 mM NaH2PO4, 26 mM NaHCO3, and 10 mM glucose (pH 7.2)) perfused with 5% CO2 and 95% O2. The heads were further dissected under a stereomicroscope. The ventral side of the head, including the jaw, gills, and mucus, was removed using fine forceps and microscissors, the optic nerves were cut and the eyes were removed. Next, the bone at the base of the skull that covers the pituitary (sella turcica) was removed using fine forceps. The head was placed in a dedicated chamber (Figure 3B) and stabilized with a slice anchor. The chamber had one inlet and one outlet, allowing for a constant flow of ACSF at a rate of 1 ml/min, and an additional inlet that was placed in proximity to the tissue for injections of stimuli. The total volume of ACSF in the chamber was 3 ml.
Imaging was performed in an inverted confocal fluorescent microscope (Leica SP8). R-CaMP2 activity was imaged at 4–10 Hz using the resonant scanner. The laser wavelength was 540 nm and the emission band was 630 nm. Images were taken using the 20x objective. Each imaging session lasted 10 min. Before and after each session, the tissue was imaged once for GFP (excitation, 488 nm, and emission, 530 nm) and R-CaMP2 (540 nm and 590 nm) in two separate channels. Images were processed using the Fiji program ([Schindelin et al., 2012]) for resolution using the Gaussian Blur filter and motion correction using the moco plugin ([Dubbs et al., 2016]).
To measure hormone secretion in response to salmon GnRH analogue (D-Ala6,Pro9-Net)-mammalian GnRH (Bachem Inc, Torrance, CA) or zebrafish CCK [D-Y-[SO3H]-L-G-W-M-D-F, synthesized by GL Biochem] stimulation, the medium was collected through the chamber outlet during the entire imaging session (10 ml per session in total). Each pituitary was imaged three times for 10 min: before, during, and after stimulation. The stimulus was applied manually as a pulse of 300 μl of […] (78.74 µM) peptide during the first 30 s of the imaging session. Hormones were measured in the fractions before and after stimulation using ELISA developed for common carp, which was established in the Levavi-Sivan lab using recombinant carp gonadotropins produced in yeast, and had been previously shown to be suitable for zebrafish ([Whitlock et al., 2019]).
Tissue viability was validated by monitoring the morphology and activity of the cells, looking at granulation and calcium changes. This specific preparation was also viable 2 hr after dissection, when all the cells responded to the different stimuli.
A composite of GFP-positive and RCaMP-positive cells was created to distinguish between LH and FSH cells. […]

FSH secretion = experiment: Ex vivo FSH secretion into perfused medium, ELISA; assay type: cell-based, zebrafish; details: GnRH pulse 300 μl of 30 μg/μl (78.74 µM), n=5, paired t-test
Description: (§3) The calcium response observed in LH and FSH cells upon GnRH and CCK stimulation indicates a preferential stimulatory effect of the neuropeptides on each cell type. The effect of these neuropeptides on LH and FSH secretion was examined in order to determine the functional outcome of the stimulation. For that, we collected the medium perfused through our ex vivo system (Figure 3A and B) during our calcium imaging assays. The medium was subsequently used to measure LH and FSH secretion using a specific ELISA validated for zebrafish GTHs ([Hollander-Cohen et al., 2018]).
(§4) Adult fish were euthanized using ice-cold water and decapitated. […]
(§5) To measure hormone secretion in response to salmon GnRH analogue (D-Ala6,Pro9-Net)-mammalian GnRH (Bachem Inc, Torrance, CA) or zebrafish CCK [D-Y-[SO3H]-L-G-W-M-D-F, synthesized by GL Biochem] stimulation, the medium was collected through the chamber outlet during the entire imaging session (10 ml per session in total). […] Hormones were measured in the fractions before and after stimulation using ELISA developed for common carp, which was established in the Levavi-Sivan lab using recombinant carp gonadotropins produced in yeast, and had been previously shown to be suitable for zebrafish ([Whitlock et al., 2019]).

[2] = tested on: LH expression in the pituitary; experiment: In vivo injection: LH expression in pituitary (real-time PCR); set-up: species or system zebrafish; details: intraperitoneal, 100 ng/g body weight, 2 hr, n=10
Experimental: (§6) Six-month-old zebrafish (five males and five females) were injected intraperitoneally with the following: (1) fish CCK peptide [(D-Y[SO3H]-L-G-W-M-D-F-NH (2), synthesized by GL Biochem] at a concentration of 10 ng/g or 100 ng/g body weight, 2) salmon GnRH analogue (D-Ala6,Pro9-Net)-mammalian GnRH (Bachem Inc, Torrance, CA) at a concentration of 100 ng/g body weight, (3) similar volumes of saline. Two hours post-injection, the fish were sedated using MS-222, bled from the heart as previously described ([Biran et al., 2012]), and decapitated. Pituitaries were dissected under a stereomicroscope and placed in Total RNA Isolation Reagent (Trizol). From each fish, between 15 μl and 20 μl of blood was collected. The blood was centrifuged at 970 × g 30 min and the plasma was separated and stored at −20 °C. LH and FSH expression in the pituitary was measured using real-time PCR (see Figure 5—source data 1 for primer list). RNA extraction, reverse transcription of RNA, and real-time PCR were carried out as previously described ([Biran et al., 2008]). FSH secretion was measured in the plasma using ELISA for common carp, which was established in the Levavi Sivan lab using recombinant carp gonadotropins from in the yeast, and had been previously shown to be suitable for zebrafish ([Hollander-Cohen et al., 2018]).

FSH plasma levels = experiment: In vivo injection: FSH plasma levels (ELISA); set-up: species or system zebrafish; details: intraperitoneal, 100 ng/g body weight, 2 hr; n=10; Fig 5C and D
Experimental: as §6

LH secretion = experiment: Ex vivo LH secretion into perfused medium, ELISA; assay type: cell-based, zebrafish; details: GnRH pulse 300 μl of 30 μg/μl, n=5, paired t-test
Description: as §3, §4, §5

[3] = tested on: FSH cells in pituitary cell culture; details: ref Lin and Ge, 2009; cited from earlier work
Description: GnRH has long been considered the common stimulator of gonadotropin secretion in vertebrates. However, accumulating evidence for GnRH-independent FSH secretion in several mammalian species has questioned the regulatory role of GnRH ([McCann et al., 2001]; [Padmanabhan et al., 1997]; [Culler and Negro-Vilar, 1987]; [Pau et al., 1991]).

For (D-Ala6,Pro9-Net)-mammalian GnRH, the “binding to fish GnRH receptors” value [1] is given as “effectively binds to the three types of GnRH receptors that exist in fish”, the “calcium response to GnRH, FSH cells” value (FSH cells; GnRH 300 μl, n=10) is given as “partial increase in follicle-stimulating hormone (FSH) cells; also recorded: inconsistent response of FSH cells” and the “percentage of cells responsive to GnRH stimulus, FSH cells” value (FSH cells; GnRH puff 300 μl, coefficient values higher than the 80 percentiles of basal values, same fish, n=10 (3 males, 7 females)) is given as 56%. For the same substance, the “fish displaying an increase in cross-correlation values from the basal state, FSH cells” value (FSH cells; GnRH puff 300 μl, percent of fish, n=10) was 50%, the “calcium transient average half width, LH cells” value (LH cells; ex vivo brain-pituitary preparation, GnRH puff 78.74 µM, pH 7.2 ACSF, Fig 3-supplement 2: mean of 20 cell traces per fish, 3 females, 3 males) was 48.6 s and the “calcium response to GnRH, LH cells” value (LH cells; ex vivo, GnRH 78.74 µM, n=10) was “synchronized increase of calcium in all luteinizing hormone (LH) cells; also recorded: strong and slow calcium rise”. For the same substance, the “calcium transient average amplitude, LH cells” value (LH cells; ex vivo, GnRH puff 78.74 µM, Fig 3-supplement 2: mean of 20 cell traces per fish, 3 females, 3 males) was 1.99 ∆F/F, the “percentage of cells responsive to GnRH stimulus, LH cells” value (LH cells; ex vivo, GnRH puff 78.74 µM, coefficient values higher than the 80 percentiles of basal values, n=10 (3 males, 7 females), p<0.001 vs FSH cells) was 95% and the “mean of max cross-correlation coefficient of calcium traces, LH cells” value (LH cells; ex vivo, after GnRH puff 78.74 µM, basal 0.26 ± 0.02, n=10 (3 males, 7 females), mean ± SEM, p<0.0001) was 0.66 ± 0.05. The “FSH secretion response to GnRH” value (FSH secretion) was “not significant from the basal secretion”, the “LH expression in the pituitary after GnRH injection” value [2] was “only affected LH expression in the pituitary; also recorded: Expression level increased significantly only in response to GnRH injection” and the “FSH expression and secretion response to GnRH injection” value (FSH plasma levels) was “did not reach statistical significance”. The “LH secretion response to GnRH” value (LH secretion) was “significant rise in LH secretion” and the “FSH cells response to GnRH stimuli in pituitary cell culture” value [3] was “lack of FSH cells response to GnRH stimuli in pituitary cell culture”.
